Earlier results as cited in patent publication US20180064655A1, “Hydroxynorketamine Transdermal Patch” (priority 2016, published 2018).

Columns and labels:
[1] = metabolite of ketamine
[2] = in vivo
[3] = in vivo; remark: listed apart in the source
[4] = following a single administration

SMILES | antidepressant effect [1] | ketamine-related side-effects [2] | onset of antidepressant effects [4] | persistence of antidepressant effects [4] | efficacy as an antidepressant (in vivo) | side effects limiting clinical use [3]
N[C@@]1(c2ccccc2Cl)CCC[C@@H](O)C1=O [(2R,6R)-HNK, (2R,6R)-hydroxynorketamine] | responsible for the antidepressant effect observed with ketamine treatment | lacks ketamine-related side-effects | – | – | – | –
CNC1(c2ccccc2Cl)CCCCC1=O (stereo not drawn) [Ketamine] | – | – | within hours | approximately one | rapid and robust efficacy as an antidepressant | abuse potential and sensory-dissociation side effects
